# Several values for one entry are separate records, joined by “and”; a condition that tells them apart may be missing. Equal entries are not always repeated.
# What was measured:
# [1] = molecular target: T1, DRD4 (D4.4 variant) wild-type (Homo sapiens, UniProt P21917); assay: Radioligand competition binding, [3H]-N-methylspiperone; conditions: DRD4; [3H]-methylspiperone (0.8-1.0 nM); read-out: Ki
# T1 sequence (P21917 1-419): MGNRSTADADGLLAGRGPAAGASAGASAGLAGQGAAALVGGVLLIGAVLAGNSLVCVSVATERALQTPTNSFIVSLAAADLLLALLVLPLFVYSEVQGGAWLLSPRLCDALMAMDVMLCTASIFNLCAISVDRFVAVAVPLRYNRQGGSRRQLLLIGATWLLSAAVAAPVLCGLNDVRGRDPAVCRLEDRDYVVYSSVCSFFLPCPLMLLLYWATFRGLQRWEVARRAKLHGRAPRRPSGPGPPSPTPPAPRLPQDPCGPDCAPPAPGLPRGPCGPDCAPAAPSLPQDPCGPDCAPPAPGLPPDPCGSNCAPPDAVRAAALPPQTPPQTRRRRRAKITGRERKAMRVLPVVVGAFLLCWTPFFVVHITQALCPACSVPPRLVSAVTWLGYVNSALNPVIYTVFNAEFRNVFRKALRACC
# [2] = molecular target: DRD3 F1063.28A (Homo sapiens, UniProt P35462, F106A); assay: biochemical; type: binding
# DRD3 F1063.28A, sequence (P35462 whole entry F106A): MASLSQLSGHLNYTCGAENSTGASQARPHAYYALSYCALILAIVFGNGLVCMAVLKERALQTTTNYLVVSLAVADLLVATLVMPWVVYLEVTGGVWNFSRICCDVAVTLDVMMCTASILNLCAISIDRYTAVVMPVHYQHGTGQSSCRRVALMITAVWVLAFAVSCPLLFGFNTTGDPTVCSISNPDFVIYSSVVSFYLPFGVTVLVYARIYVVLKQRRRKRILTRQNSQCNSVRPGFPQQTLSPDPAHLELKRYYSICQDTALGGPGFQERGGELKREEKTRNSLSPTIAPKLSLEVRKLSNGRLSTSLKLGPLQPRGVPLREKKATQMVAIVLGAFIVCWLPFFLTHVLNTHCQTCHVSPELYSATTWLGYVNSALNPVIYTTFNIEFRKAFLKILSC
# [3] = molecular target: DRD2 (D2 long receptor) wild-type (Homo sapiens, UniProt P14416); assay: Radioligand competition binding, [3H]-N-methylspiperone, HEK293T membranes; conditions: DRD2; [3H]-methylspiperone (0.8-1.0 nM); read-out: Ki
# DRD2 (D2 long receptor) wild-type, sequence (P14416 whole entry): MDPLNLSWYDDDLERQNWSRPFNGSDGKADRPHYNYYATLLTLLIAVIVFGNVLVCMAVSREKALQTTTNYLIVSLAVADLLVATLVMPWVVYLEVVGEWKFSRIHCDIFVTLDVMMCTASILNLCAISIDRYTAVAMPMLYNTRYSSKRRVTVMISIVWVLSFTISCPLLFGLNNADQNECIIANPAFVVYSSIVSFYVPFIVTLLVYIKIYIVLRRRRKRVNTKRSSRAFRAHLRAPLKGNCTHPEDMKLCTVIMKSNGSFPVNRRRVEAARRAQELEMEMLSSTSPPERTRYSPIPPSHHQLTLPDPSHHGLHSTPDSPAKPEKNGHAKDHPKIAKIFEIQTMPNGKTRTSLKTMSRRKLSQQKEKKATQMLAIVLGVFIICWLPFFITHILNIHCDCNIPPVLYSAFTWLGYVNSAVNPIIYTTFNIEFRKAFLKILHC
# [4] = molecular target: DRD2 (D2 long receptor) (Homo sapiens, UniProt P14416); assay: β-arrestin2 recruitment (Tango), HTLA cells; type: cell-based; conditions: for Response, Fig_S11c dose-response: individual replicates
# DRD2 (D2 long receptor), sequence (P14416 whole entry): as above
# [5] = molecular target: DRD2 F1103.28A (Homo sapiens, UniProt P14416, F110A); assay: Gαi/o-mediated cAMP inhibition (GloSensor), mutant; type: cell-based; set-up: expressed in transfected cells; host or cells: HEK293T (ATCC CRL-11268)
# DRD2 F1103.28A, sequence (P14416 whole entry F110A): as the sequence (P14416 whole entry) above, with F110A counted along it
# [6] = molecular target: T2, DRD2 F1103.28L (Homo sapiens, UniProt P14416, F110L); assay: Gαi/o-mediated cAMP inhibition (GloSensor), mutant; type: cell-based
# T2 construct: expressed in transfected cells; host or cells: HEK293T (ATCC CRL-11268)
# T2 sequence (P14416 whole entry F110L): as the sequence (P14416 whole entry) above, with F110L counted along it
# [7] = molecular target: T3, DRD4 (D4.4 variant) (Homo sapiens, UniProt P21917); assay: β-arrestin2 recruitment (Tango); type: cell-based; conditions: DRD4; Tango; read-out: EC50 ± SEM
# T3 sequence (P21917 1-419): T1 sequence (P21917 1-419)
smiles,measurement,setting,value
CCOc1cccc2cc(C(C)NCC3(O)CCCCC3)oc12 (centres unmarked) [O4LE6],Ki,[1],> 10000 nM
same,Ki,[2],460 nM
same,"affinity decreased, mutant vs wild type",[2]; DRD3 Phe106^3.28Ala vs wild-type DRD3,2.09 fold
same,Ki,[3],1910 nM and 1900 nM
same,EC50,"[4]; DRD2, β-arrestin2 recruitment (Tango), read-out: EC50 ± SEM",43.2 ± 12.3 nM
same,"response, Fig_S11c dose-response source data","[4]; Fig_S11c, Log[Drug] -5, replicate values",112.633 and 105.275 and 98.5438 and 105.099 and 112.565
same,"response, Fig_S11e dose-response source data","[4]; Log[Drug] -6.52, replicate values",78.7922
same,"response, Fig_S11e dose-response source data","[4]; Log[Drug] -7, replicate values",72.0078 and 74.6368 and 66.9645 and 59.2359 and 63.6719 and 58.7266 and 59.326 and 73.941 and 65.8379
same,"response, Fig_S11e dose-response source data","[4]; Log[Drug] -7.52, replicate values",37.8418 and 44.9592 and 58.6118 and 43.0054 and 55.0074 and 48.586 and 48.419 and 72.5528 and 64.0624
same,"response, Fig_S11e dose-response source data","[4]; Log[Drug] -8, replicate values",15.3268 and 15.1148 and 16.7449 and 27.4037 and 26.6311 and 23.8074 and 19.9269 and 24.9446 and 21.2413
same,"response, Fig_S11e dose-response source data","[4]; Log[Drug] -8.52, replicate values",4.375 and 3.995 and 5.741 and 6.567 and 6.611 and 6.201 and 5.912 and 5.884 and 4.408
same,"response, Fig_S11e dose-response source data","[4]; Log[Drug] -9, replicate values",3.657 and 3.173 and 3.675 and 2.9749 and 3.073 and 3.47 and 2.665 and 3.951 and 5.063
same,"response, Fig_S11e dose-response source data","[4]; Log[Drug] -9.52, replicate values",2.783 and 2.8126 and 2.809 and 2.846 and 2.583 and 2.72 and 1.765 and 1.2028 and 2.471
same,"response, Fig_S11e dose-response source data","[4]; Log[Drug] -10, replicate values",3.027 and 2.494 and 2.707 and 2.723 and 2.793 and 2.57 and 1.765 and 1.586 and 1.567
same,"response, Fig_S11e dose-response source data","[4]; Log[Drug] -10.52, replicate values",2.869 and 2.577 and 2.7076 and 2.741 and 2.285 and 2.767 and 1.576 and 1.95 and 2.499
same,"response, Fig_S11e dose-response source data","[4]; Log[Drug] -11, replicate values",2.286 and 2.31 and 2.497 and 2.358 and 2.303 and 2.397 and 3.984 and 1.567 and 2.499
same,"response, Fig_S11e dose-response source data","[4]; Log[Drug] -11.52, replicate values",2.417 and 3.403 and 2.6551 and 2.344 and 2.523 and 2.357 and 1.752 and 2.8723 and 2.669
same,"response, Fig_S11e dose-response source data","[4]; Log[Drug] -12, replicate values",2.236 and 2.366 and 2.369 and 2.676 and 2.167 and 2.127 and 2.148 and 1.023 and 3.799
same,Emax,"[4]; HTLA, read-out: Emax relative to quinpirole response, DRD2, Tango",105%
same,"β-arrestin2 recruitment response at DRD2 (source data, replicate values)",[4]; Log[Drug] -6.52,78.7922
same,"Response, Fig_S11c dose-response",[4]; Log[Drug] -6.52,78.7922
same,"β-arrestin2 recruitment response at DRD2 (source data, replicate values)",[4]; Log[Drug] -7,72.0078 and 74.6368 and 66.9645 and 59.2359 and 63.6719 and 58.7266 and 59.326 and 73.941 and 65.8379
same,"Response, Fig_S11c dose-response",[4]; Log[Drug] -7,72.0078 and 74.6368 and 66.9645 and 59.2359 and 63.6719 and 58.7266 and 59.326 and 73.941 and 65.8379
same,"β-arrestin2 recruitment response at DRD2 (source data, replicate values)",[4]; Log[Drug] -7.52,37.8418 and 44.9592 and 58.6118 and 43.0054 and 55.0074 and 48.586 and 48.419 and 72.5528 and 64.0624
same,"Response, Fig_S11c dose-response",[4]; Log[Drug] -7.52,37.8418 and 44.9592 and 58.6118 and 43.0054 and 55.0074 and 48.586 and 48.419 and 72.5528 and 64.0624
same,"β-arrestin2 recruitment response at DRD2 (source data, replicate values)",[4]; Log[Drug] -8,15.3268 and 15.1148 and 16.7449 and 27.4037 and 26.6311 and 23.8074 and 19.9269 and 24.9446 and 21.2413
same,"Response, Fig_S11c dose-response",[4]; Log[Drug] -8,15.3268 and 15.1148 and 16.7449 and 27.4037 and 26.6311 and 23.8074 and 19.9269 and 24.9446 and 21.2413
same,"β-arrestin2 recruitment response at DRD2 (source data, replicate values)",[4]; Log[Drug] -8.52,4.375 and 3.995 and 5.741 and 6.567 and 6.611 and 6.201 and 5.912 and 5.884 and 4.408
same,"Response, Fig_S11c dose-response",[4]; Log[Drug] -8.52,4.375 and 3.995 and 5.741 and 6.567 and 6.611 and 6.201 and 5.912 and 5.884 and 4.408
same,"β-arrestin2 recruitment response at DRD2 (source data, replicate values)",[4]; Log[Drug] -9,3.657 and 3.173 and 3.675 and 2.9749 and 3.073 and 3.47 and 2.665 and 3.951 and 5.063
same,"Response, Fig_S11c dose-response",[4]; Log[Drug] -9,3.657 and 3.173 and 3.675 and 2.9749 and 3.073 and 3.47 and 2.665 and 3.951 and 5.063
same,"β-arrestin2 recruitment response at DRD2 (source data, replicate values)",[4]; Log[Drug] -9.52,2.783 and 2.8126 and 2.809 and 2.846 and 2.583 and 2.72 and 1.765 and 1.2028 and 2.471
same,"Response, Fig_S11c dose-response",[4]; Log[Drug] -9.52,2.783 and 2.8126 and 2.809 and 2.846 and 2.583 and 2.72 and 1.765 and 1.2028 and 2.471
same,"β-arrestin2 recruitment response at DRD2 (source data, replicate values)",[4]; Log[Drug] -10,3.027 and 2.494 and 2.707 and 2.723 and 2.793 and 2.57 and 1.765 and 1.586 and 1.567
same,"Response, Fig_S11c dose-response",[4]; Log[Drug] -10,3.027 and 2.494 and 2.707 and 2.723 and 2.793 and 2.57 and 1.765 and 1.586 and 1.567
same,"β-arrestin2 recruitment response at DRD2 (source data, replicate values)",[4]; Log[Drug] -10.52,2.869 and 2.577 and 2.7076 and 2.741 and 2.285 and 2.767 and 1.576 and 1.95 and 2.499
same,"Response, Fig_S11c dose-response",[4]; Log[Drug] -10.52,2.869 and 2.577 and 2.7076 and 2.741 and 2.285 and 2.767 and 1.576 and 1.95 and 2.499
same,"β-arrestin2 recruitment response at DRD2 (source data, replicate values)",[4]; Log[Drug] -11,2.286 and 2.31 and 2.497 and 2.358 and 2.303 and 2.397 and 3.984 and 1.567 and 2.499
same,"Response, Fig_S11c dose-response",[4]; Log[Drug] -11,2.286 and 2.31 and 2.497 and 2.358 and 2.303 and 2.397 and 3.984 and 1.567 and 2.499
same,"β-arrestin2 recruitment response at DRD2 (source data, replicate values)",[4]; Log[Drug] -11.52,2.417 and 3.403 and 2.6551 and 2.344 and 2.523 and 2.357 and 1.752 and 2.8723 and 2.669
same,"Response, Fig_S11c dose-response",[4]; Log[Drug] -11.52,2.417 and 3.403 and 2.6551 and 2.344 and 2.523 and 2.357 and 1.752 and 2.8723 and 2.669
same,"β-arrestin2 recruitment response at DRD2 (source data, replicate values)",[4]; Log[Drug] -12,2.236 and 2.366 and 2.369 and 2.676 and 2.167 and 2.127 and 2.148 and 1.023 and 3.799
same,"Response, Fig_S11c dose-response",[4]; Log[Drug] -12,2.236 and 2.366 and 2.369 and 2.676 and 2.167 and 2.127 and 2.148 and 1.023 and 3.799
same,EC50,[5],> 10000 nM
same,EC50,[6]; DRD2 F1103.28L (b138 head prints DRD2 F1063.28L),11.3 ± 2.27 nM
same,Emax,"[6]; read-out: Emax relative to quinpirole response, DRD2 F1103.28L",61%
same,EC50,[7],> 10000 nM

# — publication PMC7044277 (Nature Communications, 2020)
